This is an account of results in publication PMC11487390, “Design and Synthesis of 1,3-Diarylpyrazoles and Investigation of Their Cytotoxicity and Antiparasitic Profile” (International Journal of Molecular Sciences, 2024).

In data set [1] the test system is primary mouse macrophages (PMMs). Briefly: Cytotoxicity against primary peritoneal mouse macrophages (PMM). It counts as cell-based. To be noted: Macrophage. The procedure: The series of final products (13–69) was investigated in vitro on the human fetal lung fibroblast cell line MRC-5 (Table 1) to assess cytotoxicity toward normal (i.e., non-malignant) human cells. […] As explained earlier, these are important pathogens for humans or cattle (T. b. brucei) and a persistent need for new therapeutics exists for these parasites. As a part of the antiparasitic tests, cytotoxicity against primary mouse macrophages (PMMs) was also evaluated. These murine cells serve as host cells for parasites in the L. infantum assay. Therefore, the murine macrophage assay not only offers additional cytotoxicological insight but is also essential to interpreting the readout of the L. infantum assay.
The MRC-5SV2 human lung fibroblast cell line was cultured in MEM + Earle’s salts-medium, supplemented with 2 mM L-glutamine, 16.5 mM NaHCO3, and 5% inactivated fetal calf serum. For evaluating the antileishmanial activity, the L. infantum MHOM/MA(BE)/67 strain was used. This strain was maintained in a Golden hamster (Mesocricetus auratus). Amastigotes were collected from the spleen of an infected donor hamster using differential centrifugation. Primary peritoneal mouse macrophages were used as host cells and were collected 2 days after peritoneal stimulation with a 2% potato starch suspension. For the intracellular T. cruzi assays, the Tulahuen CL2 strain was used that expresses β-galactosidase. The strain was maintained in MRC-5SV2 cells in MEM medium. The T. b. brucei Squib 427 strain or T. b. rhodesiense STIB-900 strain was used for screening against the extracellular African trypanosomes. The strains were maintained in Hirumi’s Modified Iscove’s medium-9 (HMI-9), supplemented with 10% inactivated fetal calf serum. All cultures and assays were performed at 37 °C with 5% CO2.
Primary peritoneal mouse macrophages (PMMs) were prepared in RPMI-1640 medium, supplemented with 2 mM L-glutamine, 16.5 mM NaHCO3, and 5% inactivated fetal calf serum. The macrophages are infected after 48 h with spleen-derived L. infantum amastigotes (3 × 10^4 PMM + 4.5 × 10^5 parasites/well). The compounds were added after 2 h of infection. After 5 days incubation, parasite burdens (mean number of amastigotes/macrophage) were assessed microscopically after staining with a 10% Giemsa solution and EC50 values were calculated.

Data set [2] is described as follows: Cytotoxicity assay, MRC-5SV2 cells, resazurin, 3 days. Format: cell-based. To be noted: human, MRC-5SV2 human lung fibroblast cells, MRC-5 cells, highest concentration 64 µM. Summed up:
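MRC-5SV2 fibroblasts (1.5 × 10^5 cells/mL, MEM, 5% FCS) exposed 3 days at 37 °C, 5% CO2 to 64–0.25 µM (4-fold), DMSO <1%. Viability by resazurin (10 µg mL^−1, 4 h) fluorescence; EC50 interpolated from flanking points around 50% inhibition.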
In general terms: Resazurin is reduced to fluorescent resorufin, in cell work by metabolically active cells.

Data set [3] concerns T. b. brucei Squib 427 strain. Briefly: T. b. brucei growth assay (resazurin, 3 days). It counts as cell-based, Trypanosoma brucei brucei. The settings on record: for pEC50: 3 days, read-out: T. b. bruc. (EC50). Put shortly:
(§1)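 Bloodstream parasites in HMI-9 with 10% FCS at 37 °C, 5% CO2, 1.5 × 10^4 (T. b. brucei) or 4 × 10^3 (T. b. rhodesiense) per well, exposed to 10 concentrations from 64 µM to 0.2 nM. After 3 days resazurin added, fluorescence read after 24 h or 6 h respectively; EC50 derived.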

Data set [4] has as its system L. infantum MHOM/MA(BE)/67 strain. Briefly: L. infantum intracellular amastigote assay in PMM (Giemsa, 5 days). It counts as cell-based, Leishmania infantum. Summed up:
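Primary mouse peritoneal macrophages were infected with spleen-derived amastigotes (3 × 10^4 PMM + 4.5 × 10^5 parasites/well), and compound was added 2 h post-infection. Ten concentrations (64 µM to 0.2 nM; DMSO <1%) were incubated 5 days at 37 °C, 5% CO2. Giemsa-stained amastigotes per macrophage were counted microscopically to give EC50.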

Data set [5] deals with Trypanosoma cruzi Tulahuen CL2 strain. Briefly: Intracellular T. cruzi assay in MRC-5 cells (β-galactosidase/CPRG, 7 days). To be noted: intracellular in MRC-5 cells. It counts as cell-based. Put shortly: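 MRC-5SV2 fibroblasts infected with β-galactosidase-expressing T. cruzi Tulahuen CL2 and exposed to compounds (10 concentrations, 64 µM to 0.2 nM; DMSO <1%) for 7 days at 37 °C, 5% CO2. Parasite growth read by CPRG absorbance at 540 nm after 4 h versus untreated infected controls; EC50 calculated.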

Data set [6] deals with T. b. rhodesiense STIB-900 strain. Kind of data set: T. b. rhodesiense growth assay (resazurin, 3 days). It counts as cell-based, Trypanosoma brucei rhodesiense. To be noted: for pEC50: 3 days, read-out: T. b. rhod. (EC50). Put shortly:
as §1

Data set [7] addresses Toll-like receptor 9 (TLR9). Also noted: method as in PMID 27537371. To be noted: readout of a cellular assay, cited from earlier work.
Setting [8] is: Leishmania infantum, 120 h, amastigotes in PMM, 5 days; read-out: L. inf. (EC50).
The mark [9] stands for this setting: Trypanosoma cruzi, TULAHUEN, MRC5, 168 h.
The mark [10] stands for this setting: Trypanosoma brucei, RHODESIENSE, 72 h.
[11] abbreviates: Leishmania infantum, 120 h, read-out: L. inf. (EC50, µM), amastigotes in PMM, 5 days.

SMILES strings stand for the structures. pEC50: −log10 of the molar value. Structures can show the parent of a compound that is named as a salt. Where two headings read alike, the source gives them in different places.

Consider `CNC(=O)c1cc(Oc2ccc(NCc3cn(-c4ccccc4)nc3-c3ccc4c(c3)OCCO4)cc2)ccn1` [Compound 22, 4-(4-(((3-(2,3-dihydrobenzo[b][1,4]dioxin-6-yl)-1-phenyl-1H-pyrazol-4-yl)methyl)amino)phenoxy)-N-methylpicolinamide], for which the pEC50 is less than 4.19 in data set [1]; 5.65 in data set [3] (Trypanosoma brucei, 72 h); less than 4.19 in data set [4] (setting [8]); less than 4.19 in data set [5] (setting [9]); 6.13 in data set [6] (setting [10]). For the same compound, the EC50 at 3 days in data set [2] is more than 64 µM. The compound further displayed a selectivity index in data set [6] (T. b. rhodesiense versus cytotoxicity) of 86.

`c1ccc(-n2cc(CNCCN3CCCC3)c(-c3ccc4c(c3)OCCO4)n2)cc1` [Compound 26, N-((3-(2,3-dihydrobenzo[b][1,4]dioxin-6-yl)-1-phenyl-1H-pyrazol-4-yl)methyl)-2-(pyrrolidin-1-yl)ethan-1-amine dihydrochloride]: the negative logarithm of the EC50 (pEC50) in data set [1] was 4.49; in data set [3], 5.82; in data set [3] (listed as 26/HIT 8), more than 5.00; in data set [4] (read-out: L. inf. (EC50); amastigotes in PMM, 5 days) it was 5.08; in data set [5] (setting [9]) it was more than 5.00; in data set [5], 5.10. For the same compound, the pEC50 in data set [7] (read-out: EC50 for TLR9 antagonism) was 5.50; in data set [6], 5.76; in data set [6] (listed as 26/HIT 8) it was more than 5.00. The compound further yielded a concentration for a half-maximal effect (EC50) at 3 days in data set [2] of 21.7 µM. In addition, the EC50 in data set [4] (setting [11]) is less than 10 µM.

As to `c1ccc(-n2cc(CNCCN3CCOCC3)c(-c3ccc4c(c3)OCCO4)n2)cc1` [Compound 28, N-((3-(2,3-dihydrobenzo[b][1,4]dioxin-6-yl)-1-phenyl-1H-pyrazol-4-yl)methyl)-2-morpholinoethan-1-amine dihydrochloride], the pEC50 in data set [1] was 4.49; in data set [5] (setting [9]) it was 4.52. In data set [2], this compound returned a concentration for a half-maximal effect (EC50) at 3 days of 29.4 µM. Besides, the EC50 in data set [3] (Trypanosoma brucei, 72 h, read-out: T. b. bruc. (EC50, µM), 3 days) was 7.08 µM; in data set [4] (setting [11]), 32.5 µM; in data set [6] (Trypanosoma brucei, RHODESIENSE, 72 h, read-out: T. b. rhod. (EC50, µM), 3 days), 6.27 µM.

On to `CN(C)CCCNCc1cn(-c2ccccc2)nc1-c1ccc2c(c1)OCCO2.Cl.Cl` [Compound 29, N^1-((3-(2,3-dihydrobenzo[b][1,4]dioxin-6-yl)-1-phenyl-1H-pyrazol-4-yl)methyl)-N^3,N^3-dimethylpropane-1,3-diamine dihydrochloride], for which the EC50 at 3 days in data set [2] was found to be 5.14 µM. Further, in data set [7], the “EC50 for TLR9 antagonism” value was “grossly comparable potency”.

With `O=C(Nc1ccc(F)cc1)c1cn(-c2ccccc2)nc1-c1ccc2c(c1)OCCO2` [Compound 31, 3-(2,3-dihydrobenzo[b][1,4]dioxin-6-yl)-N-(4-fluorophenyl)-1-phenyl-1H-pyrazole-4-carboxamide], the pEC50 in data set [1] was less than 4.19; in data set [3] (Trypanosoma brucei, 72 h) it was 5.17; in data set [4] (setting [8]) it was less than 4.19; in data set [5] (setting [9]), 5.13; in data set [6] (setting [10]) it was 5.51. In data set [2], this compound registered an EC50 at 3 days of more than 64 µM.

As for `O=C(NCc1ccccc1)c1cn(-c2ccccc2)nc1-c1ccc2c(c1)OCCO2` [Compound 32, N-benzyl-3-(2,3-dihydrobenzo[b][1,4]dioxin-6-yl)-1-phenyl-1H-pyrazole-4-carboxamide], the pEC50 was less than 4.19 in data set [1]; 4.62 in data set [3] (Trypanosoma brucei, 72 h); 4.90 in data set [4] (setting [8]); 5.17 in data set [5] (setting [9]); 5.31 in data set [6] (setting [10]). The compound also returned an EC50 at 3 days in data set [2] of more than 64 µM.

With `O=C(NCc1ccc(F)cc1)c1cn(-c2ccccc2)nc1-c1ccc2c(c1)OCCO2` [Compound 33, 3-(2,3-dihydrobenzo[b][1,4]dioxin-6-yl)-N-(4-fluorobenzyl)-1-phenyl-1H-pyrazole-4-carboxamide], the pEC50 in data set [1] is less than 4.19; in data set [3] (Trypanosoma brucei, 72 h), less than 4.19; in data set [4] (setting [8]), 5.08; in data set [4] (amastigotes in PMM, 5 days; read-out: L. inf. (EC50)) it was 5.02; in data set [5] (setting [9]) it was less than 4.19; in data set [6] (setting [10]), 5.37. The same compound returned an EC50 at 3 days in data set [2] of 64 µM.

Turning to `O=C(NCCc1ccncc1)c1cn(-c2ccccc2)nc1-c1ccc2c(c1)OCCO2` [Compound 35, 3-(2,3-dihydrobenzo[b][1,4]dioxin-6-yl)-1-phenyl-N-(2-(pyridin-4-yl)ethyl)-1H-pyrazole-4-carboxamide], the negative logarithm of the EC50 (pEC50) in data set [1] was less than 4.19; in data set [3] (Trypanosoma brucei, 72 h) it was 4.64; in data set [4] (setting [8]), less than 4.19; in data set [5] (setting [9]), 5.36; in data set [6] (setting [10]), 5.89. Moreover, in data set [2], the EC50 at 3 days is more than 64 µM.

Regarding `O=C(NCCc1cccnc1)c1cn(-c2ccccc2)nc1-c1ccc2c(c1)OCCO2` [Compound 36, 3-(2,3-dihydrobenzo[b][1,4]dioxin-6-yl)-1-phenyl-N-(2-(pyridin-3-yl)ethyl)-1H-pyrazole-4-carboxamide], the pEC50 in data set [1] was less than 4.19; in data set [3] (Trypanosoma brucei, 72 h), 4.71; in data set [4] (setting [8]) it was 4.34; in data set [5] (setting [9]) it was 5.34; in data set [6] (setting [10]), 5.40. The compound further returned an EC50 at 3 days in data set [2] of 45 µM.

As for `O=C(NCCc1ccccn1)c1cn(-c2ccccc2)nc1-c1ccc2c(c1)OCCO2` [Compound 37, 3-(2,3-dihydrobenzo[b][1,4]dioxin-6-yl)-1-phenyl-N-(2-(pyridin-2-yl)ethyl)-1H-pyrazole-4-carboxamide], the pEC50 is less than 4.19 in data set [1]; 4.70 in data set [3] (Trypanosoma brucei, 72 h); less than 4.19 in data set [4] (setting [8]); 4.88 in data set [5] (setting [9]); 5.53 in data set [6] (setting [10]). Moreover, a half-maximal effect in data set [2] (EC50 at 3 days) was put at 32 µM.

Turning to `CNC(=O)c1cc(Oc2ccc(NC(=O)c3cn(-c4ccccc4)nc3-c3ccc4c(c3)OCCO4)cc2)ccn1` [Compound 38, 4-(4-(3-(2,3-dihydrobenzo[b][1,4]dioxin-6-yl)-1-phenyl-1H-pyrazole-4-carboxamido)phenoxy)-N-methylpicolinamide], the negative-log EC50 (pEC50) in data set [1] is less than 4.19; in data set [3] (Trypanosoma brucei, 72 h) it was 5.10; in data set [4] (setting [8]) it was less than 4.19; in data set [5] (setting [9]), less than 4.19; in data set [6] (setting [10]), 5.76. The same compound had a concentration for a half-maximal effect (EC50) at 3 days in data set [2] of 6.35 µM.

On to `O=C(c1cn(-c2ccccc2)nc1-c1ccc2c(c1)OCCO2)N1CCCC1` [Compound 39, (3-(2,3-dihydrobenzo[b][1,4]dioxin-6-yl)-1-phenyl-1H-pyrazol-4-yl)(pyrrolidin-1-yl)methanone], for which the pEC50 in data set [1] is less than 4.19; in data set [3] (Trypanosoma brucei, 72 h) it was less than 4.19; in data set [4] (setting [8]), 4.42; in data set [5] (setting [9]), 5.06; in data set [6] (setting [10]), 4.43. In data set [2], this compound displayed a concentration giving a half-maximal response (EC50) at 3 days of 23.2 µM.

As for `O=C(c1cn(-c2ccccc2)nc1-c1ccc2c(c1)OCCO2)N1CCOCC1` [Compound 40, (3-(2,3-dihydrobenzo[b][1,4]dioxin-6-yl)-1-phenyl-1H-pyrazol-4-yl)(morpholino)methanone], the pEC50 in data set [1] was less than 4.19; in data set [3] (Trypanosoma brucei, 72 h), less than 4.19; in data set [4] (setting [8]) it was less than 4.19; in data set [5] (setting [9]), less than 4.19; in data set [6] (setting [10]), less than 4.19. Also, in data set [2], the EC50 at 3 days was more than 64 µM.

For orientation: pEC50 means the negative decadic logarithm of the EC50, by convention in mol/L. Usually EC50 stands for the concentration at which the effect is half-maximal.
